The text below walks through data of US6608004B2, “Substituted 2-aryl-1,2,4-triazine-3,5-di(thi)ones” (priority 1999, dated 2003).

The test system of series [1] is weeds. Briefly: Pre-Emergence Test (Example A), activity against weeds. In kind it is in vivo. The note with it: soil sprayed about 24 hours after sowing, rated after three weeks. The source says: (§1) Solvent: 5 parts by weight of acetone
(§2) Emulsifier: 1 part by weight of alkylaryl polyglycol ether
(§3) Seeds of the test plants are sown in normal soil.
0%=no effect (like untreated control)

Series [2] in a line: logP determination by HPLC, reversed-phase column (C 18), EEC Directive 79/831 Annex V.A8. The source says:
(a) Mobile phases for the determination in the acidic range: 0.1% aqueous phosphoric acid, acetonitrile; linear gradient from 10% acetonitrile to 90% acetonitrile—the corresponding measurement results are labelled in Table 1 with ^a).
(b) Mobile phases for the determination in the neutral range: 0.01 molar aqueous phosphate buffer solution, acetonitrile; linear gradient from 10% acetonitrile to 90% acetonitrile—the corresponding measurement results are labelled in Table 1 with ^b).

The test system of series [3] is crop plants, such as, for example, barley, wheat, rapeseed, soya and sugar beet. The series is described as follows: Pre-Emergence Test (Example A), tolerance by crop plants. The format is in vivo.
Text: as §1, §2, §3

In series [4] the test system is weeds. Briefly: Post-Emergence Test (Example B), activity against weeds. In kind it is in vivo. The note with it: test plants of a height of 5-15 cm sprayed, rated after three weeks.
Text: as §1, §2
(§4) After three weeks, the degree of damage to the plants is rated in % damage in comparison to the development of the untreated control.

Series [5] relates to crop plants, such as, for example, barley and wheat. Briefly: Post-Emergence Test (Example B), tolerance by crop plants.
Text: as §1, §2, §4

[6] abbreviates: a) acidic range: 0.1% aqueous phosphoric acid, acetonitrile gradient, HPLC C 18, 43° C.
Setting [7] is: pre-emergence, barley, wheat, rapeseed, soya and sugar beet, rated after three weeks.
Where [8] appears, read: post-emergence, barley and wheat, rated after three weeks.

Where two headings read alike, the source gives them in different places. Where only a bound is given, the exact number is not on record here.

As usually defined, the melting point is the temperature of the solid-liquid transition. Consider `N#Cc1cc(F)c(-n2ncc(=O)[nH]c2=O)cc1F`, for which the melting point is above 250 °C.

Regarding `CCOc1ccc(CCC(=O)N(c2cc(-n3ncc(=O)n(C)c3=O)c(F)cc2C#N)S(=O)(=O)CC)cc1` [Example 51], the “activity against weeds (degree of damage)” value (shortened to “activity against weeds”) in the series with weeds [1] and with weeds [4] was “very strong activity” each time. Moreover, in series [2], the “logP a)” value is “m.p.: 74 °C logP = 3.22^a)”. Further, the “tolerance by crop plants” value in series [3] (in vivo) and in series [5] (in vivo) was “essentially being tolerated well” each time.

As to `CCS(=O)(=O)N(C(=O)C=C(C)C)c1cc(-n2ncc(=O)n(C)c2=O)c(F)cc1C#N` [Example 32], the “activity against weeds” value in the series on weeds [1] and in the series with weeds [4] was “very strong activity” in each case. Moreover, the “logP a)” value in series [2] (setting [6]) is “m.p.: 150 °C logP = 2.40^a)”. The “tolerance by crop plants” value in series [3] (setting [7]) and in series [5] (setting [8]) was “essentially being tolerated well” in each case.

As for `CCS(=O)(=O)N(C(=O)CCl)c1cc(-n2ncc(=O)n(C)c2=O)c(F)cc1C#N` [Example 4], the “activity against weeds” value in the series on weeds [1] and in the series with weeds [4] was “very strong activity” throughout. The “logP a)” value in series [2] is “logP = 2.09^a)”. Moreover, the “tolerance by crop plants” value in series [3] (in vivo) and in series [5] (in vivo) was “essentially being tolerated well” throughout.

With `CCS(=O)(=O)N(C(=O)COc1ccc(Cl)cc1)c1cc(-n2ncc(=O)n(C)c2=O)c(F)cc1C#N` [Example 6], the “activity against weeds” value with weeds [1] and with weeds [4] was “very strong activity” in each case. Moreover, the “logP a)” value in series [2] was “m.p.: 65 °C logP = 3.07^a)”. Besides, the “tolerance by crop plants” value in series [3] (in vivo) and in series [5] (in vivo) was “essentially being tolerated well” in each case.

On to `CCS(=O)(=O)N(C(=O)CCC1CCCC1)c1cc(-n2ncc(=O)n(C)c2=O)c(F)cc1C#N` [Example 46], for which the “activity against weeds” value in the series with weeds [1] and in the series with weeds [4] was “very strong activity” each time. The “logP a)” value in series [2] was “m.p.: 143 °C logP = 3.34^a)”. For the same compound, the “tolerance by crop plants” value in series [3] (in vivo) and in series [5] (in vivo) was “essentially being tolerated well” throughout.

As for `CCS(=O)(=O)N(C(=O)CCc1ccc(Cl)c(Cl)c1)c1cc(-n2ncc(=O)n(C)c2=O)c(F)cc1C#N` [Example 44], the “activity against weeds” value with weeds [1] and in the series on weeds [4] was “very strong activity” throughout. In series [2], the “logP a)” value was “m.p.: 142 °C logP = 2.52^a)”. The “tolerance by crop plants” value in series [3] (in vivo) and in series [5] (in vivo) was “essentially being tolerated well” throughout.

For the compound `CCS(=O)(=O)N(C(=O)C(C)C)c1cc(-n2ncc(=O)n(C)c2=O)c(F)cc1C#N` [Example 13], the “activity against weeds” value in the series with weeds [1] and with weeds [4] was “very strong activity” in each case. Moreover, the “logP a)” value in series [2] was “logP = 2.50^a)”. The “tolerance by crop plants” value in series [3] (in vivo) and in series [5] (in vivo) was “essentially being tolerated well” each time.

Regarding `CCS(=O)(=O)N(C(=O)CCCBr)c1cc(-n2ncc(=O)n(C)c2=O)c(F)cc1C#N` [Example 30], the “activity against weeds” value in the series on weeds [1] and in the series on weeds [4] was “very strong activity” each time. The “logP a)” value in series [2] is given as “logP = 2.51^a)”. The “tolerance by crop plants” value in series [3] (in vivo) and in series [5] (in vivo) was “essentially being tolerated well” each time.

Regarding `CCS(=O)(=O)N(C(=O)CCC1CCCCC1)c1cc(-n2ncc(=O)n(C)c2=O)c(F)cc1C#N` [Example 31], the “activity against weeds” value in the series with weeds [1] and in the series on weeds [4] was “very strong activity” in each case. Also, in series [2], the “logP a)” value was “m.p.: 123 °C logP = 3.66^a)”. The “tolerance by crop plants” value in series [3] (in vivo) and in series [5] (in vivo) was “essentially being tolerated well” throughout.

Turning to `CCCCC(CC)C(=O)N(c1cc(-n2ncc(=O)n(C)c2=O)c(F)cc1C#N)S(=O)(=O)CC` (racemic) [Example 7], the “activity against weeds” value with weeds [1] and with weeds [4] was “very strong activity” each time. Also, the “logP a)” value in series [2] is “m.p.: 140 °C logP = 3.53^a)”. For the same compound, the “tolerance by crop plants” value in series [3] (in vivo) and in series [5] (in vivo) was “essentially being tolerated well” each time.

`CCS(=O)(=O)N(C(=O)C(C)Cl)c1cc(-n2ncc(=O)n(C)c2=O)c(F)cc1C#N` (racemic) [Example 61]: the “activity against weeds” value with weeds [1] and with weeds [4] was “very strong activity” throughout. Also, the “logP a)” value in series [2] is given as “logP = 2.38^a)”. Further, the “tolerance by crop plants” value in series [3] (in vivo) and in series [5] (in vivo) was “essentially being tolerated well” in each case.

Take `CCS(=O)(=O)N(C(=O)C(C)Oc1ccccc1)c1cc(-n2ncc(=O)n(C)c2=O)c(F)cc1C#N` (racemic) [Example 39]: the “activity against weeds” value in the series with weeds [1] and with weeds [4] was “very strong activity” in each case. Moreover, the “logP a)” value in series [2] was “m.p.: 132 °C logP = 2.85^a)”. Further, the “tolerance by crop plants” value in series [3] (in vivo) and in series [5] (in vivo) was “essentially being tolerated well” in each case.

For `CCS(=O)(=O)N(C(=O)Cc1ccc(Cl)cc1)c1cc(-n2ncc(=O)n(C)c2=O)c(F)cc1C#N` [Example 42], the “activity against weeds” value in the series with weeds [1] and in the series with weeds [4] was “very strong activity” in each case. Besides, in series [2], the “logP a)” value was “m.p.: 222 °C logP = 2.96^a)”. Also, the “tolerance by crop plants” value in series [3] (in vivo) and in series [5] (in vivo) was “essentially being tolerated well” each time.

Turning to `CCS(=O)(=O)N(C(=O)CCCCl)c1cc(-n2ncc(=O)n(C)c2=O)c(F)cc1C#N` [Example 27], the “activity against weeds” value with weeds [1] and in the series with weeds [4] was “very strong activity” each time. The “logP a)” value in series [2] is reported as “logP = 2.43^a)”. Moreover, the “tolerance by crop plants” value in series [3] (in vivo) and in series [5] (in vivo) was “essentially being tolerated well” throughout.

Take `CCS(=O)(=O)N(C(=O)Cc1ccc(OC)cc1)c1cc(-n2ncc(=O)n(C)c2=O)c(F)cc1C#N` [Example 45]: the “activity against weeds” value in the series with weeds [1] and with weeds [4] was “very strong activity” throughout. In addition, in series [2], the “logP a)” value was “m.p.: 221 °C logP = 2.58^a)”. In addition, the “tolerance by crop plants” value in series [3] (in vivo) and in series [5] (in vivo) was “essentially being tolerated well” each time.

As for `CCS(=O)(=O)N(C(=O)c1ccccc1F)c1cc(-n2ncc(=O)n(C)c2=O)c(F)cc1C#N` [Example 5], the “activity against weeds” value with weeds [1] and in the series on weeds [4] was “very strong activity” each time. Further, in series [2], the “logP a)” value was “m.p.: 176 °C logP = 2.52^a)”. Moreover, the “tolerance by crop plants” value in series [3] (in vivo) and in series [5] (in vivo) was “essentially being tolerated well” throughout.

As for `CCS(=O)(=O)N(C(=O)C1CCCCC1)c1cc(-n2ncc(=O)n(C)c2=O)c(F)cc1C#N` [Example 16], the “activity against weeds” value with weeds [1] and with weeds [4] was “very strong activity” in each case. Moreover, in series [2] (setting [6]), the “logP a)” value was “m.p.: 182 °C logP = 2.46^a)”. In addition, the “tolerance by crop plants” value in series [3] (setting [7]) and in series [5] (setting [8]) was “essentially being tolerated well” each time.

Take `CCS(=O)(=O)N(C(=O)c1nn(C)c(OC(F)F)c1C)c1cc(-n2ncc(=O)n(C)c2=O)c(F)cc1C#N` [Example 23]: the “activity against weeds” value in the series with weeds [1] and in the series on weeds [4] was “very strong activity” throughout. Besides, the “logP a)” value in series [2] is “m.p.: 187 °C logP = 2.82^a)”. The “tolerance by crop plants” value in series [3] (in vivo) and in series [5] (in vivo) was “essentially being tolerated well” throughout.

For the compound `CCS(=O)(=O)N(C(=O)c1ccc(C(C)(C)C)cc1)c1cc(-n2ncc(=O)n(C)c2=O)c(F)cc1C#N` [Example 49], the “activity against weeds” value with weeds [1] and in the series with weeds [4] was “very strong activity” each time. Besides, the “logP a)” value in series [2] is “m.p.: 119 °C logP = 3.57^a)”. Further, the “tolerance by crop plants” value in series [3] (in vivo) and in series [5] (in vivo) was “essentially being tolerated well” throughout.

As for `CCS(=O)(=O)N(C(C)=O)c1cc(-n2ncc(=O)n(C)c2=O)c(F)cc1C#N` [Example 28], the “activity against weeds” value in the series with weeds [1] and in the series on weeds [4] was “very strong activity” throughout. Besides, the “logP a)” value in series [2] is given as “logP = 1.79^a)”. Further, the “tolerance by crop plants” value in series [3] (in vivo) and in series [5] (in vivo) was “essentially being tolerated well” in each case.
